Targets include Carbonic anhydrase 1 (Homo sapiens, UniProt P00915); Carbonic anhydrase 2 (Homo sapiens, UniProt P00918); Carbonic anhydrase 9 (Homo sapiens, UniProt Q16790).

Sequence of Carbonic anhydrase 1 (P00915 whole entry): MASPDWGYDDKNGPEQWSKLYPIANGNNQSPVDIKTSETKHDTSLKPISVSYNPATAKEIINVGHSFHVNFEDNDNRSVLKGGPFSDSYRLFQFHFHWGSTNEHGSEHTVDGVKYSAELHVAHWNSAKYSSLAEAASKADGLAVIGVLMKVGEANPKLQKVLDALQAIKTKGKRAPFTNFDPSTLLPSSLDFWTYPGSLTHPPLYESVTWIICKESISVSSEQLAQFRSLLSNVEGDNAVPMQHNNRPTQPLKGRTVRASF

The term Ki denotes the equilibrium dissociation constant of an inhibitor or competing ligand from its target. Regarding `CNc1nc(NC)nc(NCCc2ccc(S(N)(=O)=O)cc2)n1`, the Ki came to 88 nM on Carbonic anhydrase 1, 27 nM at Carbonic anhydrase 2 and 1.1 nM at Carbonic anhydrase 9.
`COc1nc(NCCc2ccc(S(N)(=O)=O)cc2)nc(OC)n1`: the results for the Ki on Carbonic anhydrase 2 and on Carbonic anhydrase 9 were 21 nM and 162 nM, respectively.
`CNc1nc(NC)nc(Nc2ccc(S(N)(=O)=O)cc2)n1` gave a Ki at Carbonic anhydrase 1 of 83 nM.
Consider `NS(=O)(=O)c1ccc(CCNc2nc(=O)[nH]c(=O)[nH]2)cc1`, for which the figures for the Ki at Carbonic anhydrase 1, at Carbonic anhydrase 2 and at Carbonic anhydrase 9 were 96 nM, 98 nM and 549 nM, respectively.
For the molecule `CCOc1nc(NCCc2ccc(S(N)(=O)=O)cc2)nc(OCC)n1`, the Ki at Carbonic anhydrase 1 amounted to 82 nM; on Carbonic anhydrase 2 it was 23 nM.
As to `NS(=O)(=O)c1ccc(Nc2nc(=O)[nH]c(=O)[nH]2)cc1`, the inhibition constant (Ki) was found to be 103 nM on Carbonic anhydrase 1, 278 nM at Carbonic anhydrase 2 and 142 nM at Carbonic anhydrase 9.
Turning to `NS(=O)(=O)c1ccc(CCNc2nc(Cl)nc(Cl)n2)cc1`, the Ki was determined as 75 nM at Carbonic anhydrase 1, 21 nM on Carbonic anhydrase 2 and 138 nM at Carbonic anhydrase 9.
Taken in the same sequence, the figures for `COc1nc(NCc2ccc(S(N)(=O)=O)cc2)nc(OC)n1` were 116 nM, 112 nM and 155 nM.
For the molecule `COc1nc(Nc2ccc(S(N)(=O)=O)cc2)nc(OC)n1`, the values for the Ki on Carbonic anhydrase 1, on Carbonic anhydrase 2 and at Carbonic anhydrase 9 were 85 nM, 36 nM and 150 nM, respectively.
Taken in the same sequence, the figures for `NS(=O)(=O)c1ccc(CNc2nc(=O)[nH]c(=O)[nH]2)cc1` were 94 nM, 130 nM and 360 nM.
On Carbonic anhydrase 9, `NS(=O)(=O)c1ccc(Nc2nc(Cl)nc(Cl)n2)cc1` showed a Ki of 0.15 nM.
Regarding `CCOc1nc(Nc2ccc(S(N)(=O)=O)cc2)nc(OCC)n1`, the Ki at Carbonic anhydrase 1 amounted to 78 nM; at Carbonic anhydrase 2, 20 nM; on Carbonic anhydrase 9 it was 0.12 nM.
The matching figures for `CNc1nc(NC)nc(NCc2ccc(S(N)(=O)=O)cc2)n1`: 90 nM, 15 nM and 1.3 nM.
Turning to `CCOc1nc(NCc2ccc(S(N)(=O)=O)cc2)nc(OCC)n1`, the Ki on Carbonic anhydrase 1 came out at 110 nM; on Carbonic anhydrase 2 it was 84 nM; on Carbonic anhydrase 9, 0.34 nM.

The values are drawn from ChEMBL document CHEMBL1138005, “Carbonic anhydrase inhibitors: synthesis and inhibition of cytosolic/tumor-associated carbonic anhydrase isozymes I, II, and IX with sulfonamides incorporating 1,2,4-triazine moieties” (Bioorg Med Chem Lett, 2004).
